Measured values published in patent publication EP0326418A1, “GRF analogs” (THE UPJOHN COMPANY, priority 1988, dated 1989).
Like-named read-outs stand apart in the source and are kept apart here. Where a SMILES comes first, the peptide text is derived from it. [ ]: non-standard residue; d: D form. The star is where a group is joined. Desaminotyrosyl = O=C(CCc1ccc(O)cc1)*; Cya = N[C@@H](CS(=O)(=O)O)C(=O)O

What was measured:
[1] = tested on: bovine anterior pituitary cell culture; assay type: cell-based
meal-fed Holstein steers = experiment: serum growth hormone (GH) response after intravenous injection in steers (Procedure B); assay type: in vivo; conditions: for relative growth hormone areas: in comparison to the standard bGRF(1-44)NH₂ (Area 100%), procedure B, second study
Source text: The synthetic peptides prepared in Examples 1, 2 and 3 (Compounds 1, 2 and 3 respectively), bGRF(1-44)NH2 and […] bGRF(1-32)NH2 were also given to meal-fed Holstein steers by intravenous injection (Procedure B) and the serum growth hormone (GH) response evaluated. […] In comparison to bGRF(1-44)NH2 (100%), the area under the GH response curve was 122% for […] bGRF(1-32)NH2, 100% for Compound #1, 106% for Compound #2, and 111% for Compound #3. Holstein steers (265 +/- 5kg) were housed in individual stalls 18-20°C) and exposed to 16h light:8h darkness (lights on at 0400h). Steers are meal-fed once daily at 1000h and trained to consume their total daily feed intake in 2 h. The diet consisted of rolled corn plus a mineral/vitamin premix and alfalfa hay cubes fed at 160% maintenance energy requirements on a bodyweight basis. Steers gained approximately 0.75 kg/h/d. In a 5 x […] Latin Square design 10 steers were assigned randomly to receive the following treatments. (a) bGRF(1-44)NH2, (b) […] bGRF(1-32)NH2, (c) Compound #3, (d) Compound #1, and (e) Compound #2. The GRFs were dissolves in saline (10μg/ml) and administered at 3nM/100 kg bodyweight as single iv injection at 0800 h, 2 h between feeding. A cannula was inserted into a jugular vein at least one day before treatment. Blood (6 ml) was collected at 20-min interval from 40 min before until 120 min after injection with additional samples collected at 5, 10 and 15 min after injection. Serum obtained from the samples was assayed from GH concentration. The number of steers responding to injection fo the various GRFs tested (P=0.42) ranged from 9 of 10 to 10 of 10 depending on the treatment. Using procedure B, compounds were tested for growth hormone release in steers. In comparison to the standard bGRF(1-44)NH2 (Area 100%), the test compounds gave the following relative growth hormone areas: Compound 4, 233%; compound 5, 140%; compound 6, 160%; compound 7, 126%; compound 8, 307%; compound 9, 260%; and compound 11, 173%.

[2] = proteolytic stability in bovine plasma (HPLC, modified Frohman method); conditions: for remaining at 1 h: bovine plasma
[3] = subsequent assay, potency as a fraction of bGRF(1-44)NH₂

CC[C@H](C)[C@H](NC(=O)[C@H](C)NC(=O)[C@H](CS(=O)(=O)O)NC(=O)[C@@H](C)NC(=O)[C@@H](N)Cc1ccc(O)cc1)C(=O)N[C@@H](Cc1ccccc1)C(=O)N[C@H](C(=O)N[C@@H](CC(N)=O)C(=O)N[C@@H](CO)C(=O)N[C@@H](Cc1ccc(O)cc1)C(=O)N[C@@H](CCCNC(=N)N)C(=O)N[C@@H](CCCCN)C(=O)N[C@H](C(=O)N[C@@H](CC(C)C)C(=O)NCC(=O)N[C@@H](CCC(N)=O)C(=O)N[C@@H](CC(C)C)C(=O)N[C@@H](CO)C(=O)N[C@@H](C)C(=O)N[C@@H](CCCNC(=N)N)C(=O)N[C@@H](CCCCN)C(=O)N[C@@H](CC(C)C)C(=O)N[C@@H](CC(C)C)C(=O)N[C@@H](CCC(N)=O)C(=O)N[C@@H](CC(=O)O)C(=O)N[C@H](C(=O)N[C@@H](CC(C)C)C(=O)N[C@@H](CC(N)=O)C(=O)N[C@@H](CCCNC(=N)N)C(=O)N[C@@H](CCC(N)=O)C(=O)N[C@@H](CCC(N)=O)C(=O)NCC(N)=O)[C@@H](C)CC)C(C)C)[C@@H](C)O [Compound 4, D-Ala², Cya³, Leu²⁷-bGRF(1-32)NH₂] (H-Y[dA][Cya]AIFTNSYRKVLGQLSARKLLQDILNRQQG-NH2)
the potency of bGRF(1-44)NH₂ [1]: 0.29 | relative growth hormone areas (meal-fed Holstein steers): 233% | remaining at 1 h [2]: 76%

CC[C@H](C)[C@H](NC(=O)[C@H](C)NC(=O)[C@H](CS(=O)(=O)O)NC(=O)[C@H](C)NC(=O)CCc1ccc(O)cc1)C(=O)N[C@@H](Cc1ccccc1)C(=O)N[C@H](C(=O)N[C@@H](CC(N)=O)C(=O)N[C@@H](CO)C(=O)N[C@@H](Cc1ccc(O)cc1)C(=O)N[C@@H](CCCNC(=N)N)C(=O)N[C@@H](CCCCN)C(=O)N[C@H](C(=O)N[C@@H](CC(C)C)C(=O)N[C@@H](C)C(=O)N[C@@H](CCC(N)=O)C(=O)N[C@@H](CC(C)C)C(=O)N[C@@H](CO)C(=O)N[C@@H](C)C(=O)N[C@@H](CCCNC(=N)N)C(=O)N[C@@H](CCCCN)C(=O)N[C@@H](CC(C)C)C(=O)N[C@@H](CC(C)C)C(=O)N[C@@H](CCC(N)=O)C(=O)N[C@@H](CC(=O)O)C(=O)N[C@H](C(=O)N[C@@H](CC(C)C)C(=O)N[C@@H](CC(N)=O)C(=O)N[C@@H](CCCNC(=N)N)C(=O)N[C@@H](CCC(N)=O)C(=O)N[C@@H](CCC(N)=O)C(=O)NCC(N)=O)[C@@H](C)CC)C(C)C)[C@@H](C)O [Compound 9, Desamino-Tyr¹, Cya³, Ala¹⁵, Leu²⁷-bGRF(1-32)NH₂] (Desaminotyrosyl-A[Cya]AIFTNSYRKVLAQLSARKLLQDILNRQQG-NH2)
the potency of bGRF(1-44)NH₂ [1, 3]: 2.24 | potency (in words) ([1]; summary of the bovine pituitary cell culture assays): high potency | relative growth hormone areas (meal-fed Holstein steers): 260% | remaining at 1 h [2]: 81% | proteolytic stability in bovine plasma (in words) ([2]; summary): good stability

CC[C@H](C)[C@H](NC(=O)[C@H](C)NC(=O)[C@H](CS(=O)(=O)O)NC(=O)[C@H](C)NC(=O)[C@@H](N)Cc1ccc(O)cc1)C(=O)N[C@@H](Cc1ccccc1)C(=O)N[C@H](C(=O)N[C@@H](CC(N)=O)C(=O)N[C@@H](CO)C(=O)N[C@@H](Cc1ccc(O)cc1)C(=O)N[C@@H](CCCNC(=N)N)C(=O)N[C@@H](CCCCN)C(=O)N[C@H](C(=O)N[C@@H](CC(C)C)C(=O)NCC(=O)N[C@@H](CCC(N)=O)C(=O)N[C@@H](CC(C)C)C(=O)N[C@@H](CO)C(=O)N[C@@H](C)C(=O)N[C@@H](CCCNC(=N)N)C(=O)N[C@@H](CCCCN)C(=O)N[C@@H](CC(C)C)C(=O)N[C@@H](CC(C)C)C(=O)N[C@@H](CCC(N)=O)C(=O)N[C@@H](CC(=O)O)C(=O)N[C@H](C(=O)N[C@@H](CC(C)C)C(=O)N[C@@H](CC(N)=O)C(=O)N[C@@H](CCCNC(=N)N)C(=O)N[C@@H](CCC(N)=O)C(=O)N[C@@H](CCC(N)=O)C(=O)NCC(N)=O)[C@@H](C)CC)C(C)C)[C@@H](C)O [Compound 3, Cya³, Leu ²⁷bGRF(1-32)NH₂] (H-YA[Cya]AIFTNSYRKVLGQLSARKLLQDILNRQQG-NH2)
the potency of bGRF(1-44)NH₂ ([1]; first assay, potency as a fraction of bGRF(1-44)NH₂): 0.31 | the potency of bGRF(1-44)NH₂ [1, 3]: 0.41 | serum growth hormone (GH) response, difference from Leu²⁷ bGRF(1-32)NH₂ (meal-fed Holstein steers; 3nM/100 kg bodyweight, single iv injection, compared with Leu²⁷ bGRF(1-32)NH₂): No significant differences | area under the GH response curve (meal-fed Holstein steers; in comparison to bGRF(1-44)NH₂ (100%), 3nM/100 kg bodyweight, single iv injection, first study): 111% | remaining at 1 h [2]: 42%

CC[C@H](C)[C@H](NC(=O)[C@H](C)NC(=O)[C@H](CS(=O)(=O)O)NC(=O)[C@@H](C)NC(=O)[C@@H](N)Cc1c[nH]cn1)C(=O)N[C@@H](Cc1ccccc1)C(=O)N[C@H](C(=O)N[C@@H](CC(N)=O)C(=O)N[C@@H](CO)C(=O)N[C@@H](Cc1ccc(O)cc1)C(=O)N[C@@H](CCCNC(=N)N)C(=O)N[C@@H](CCCCN)C(=O)N[C@H](C(=O)N[C@@H](CC(C)C)C(=O)NCC(=O)N[C@@H](CCC(N)=O)C(=O)N[C@@H](CC(C)C)C(=O)N[C@@H](CO)C(=O)N[C@@H](C)C(=O)N[C@@H](CCCNC(=N)N)C(=O)N[C@@H](CCCCN)C(=O)N[C@@H](CC(C)C)C(=O)N[C@@H](CC(C)C)C(=O)N[C@@H](CCC(N)=O)C(=O)N[C@@H](CC(=O)O)C(=O)N[C@H](C(=O)N[C@@H](CC(C)C)C(=O)N[C@@H](CC(N)=O)C(=O)N[C@@H](CCCNC(=N)N)C(=O)N[C@@H](CCC(N)=O)C(=O)N[C@@H](CCC(N)=O)C(=O)NCC(N)=O)[C@@H](C)CC)C(C)C)[C@@H](C)O [Compound 7, His¹, D-Ala², Cya³, Leu²⁷-bGRF(1-32)NH₂] (H-H[dA][Cya]AIFTNSYRKVLGQLSARKLLQDILNRQQG-NH2)
the potency of bGRF(1-44)NH₂ [1]: 0.06 | relative growth hormone areas (meal-fed Holstein steers): 126% | remaining at 1 h [2]: 69%

CC[C@H](C)[C@H](NC(=O)[C@H](C)NC(=O)[C@H](CS(=O)(=O)O)NC(=O)[C@@H](C)NC(=O)[C@@H](N)Cc1c[nH]cn1)C(=O)N[C@@H](Cc1ccccc1)C(=O)N[C@H](C(=O)N[C@@H](CC(N)=O)C(=O)N[C@@H](CO)C(=O)N[C@@H](Cc1ccc(O)cc1)C(=O)N[C@@H](CCCNC(=N)N)C(=O)N[C@@H](CCCCN)C(=O)N[C@H](C(=O)N[C@@H](CC(C)C)C(=O)N[C@@H](C)C(=O)N[C@@H](CCC(N)=O)C(=O)N[C@@H](CC(C)C)C(=O)N[C@@H](CO)C(=O)N[C@@H](C)C(=O)N[C@@H](CCCNC(=N)N)C(=O)N[C@@H](CCCCN)C(=O)N[C@@H](CC(C)C)C(=O)N[C@@H](CC(C)C)C(=O)N[C@@H](CCC(N)=O)C(=O)N[C@@H](CC(=O)O)C(=O)N[C@H](C(=O)N[C@@H](CC(C)C)C(=O)N[C@@H](CC(N)=O)C(=O)N[C@@H](CCCNC(=N)N)C(=O)N[C@@H](CCC(N)=O)C(=O)N[C@@H](CCC(N)=O)C(=O)NCC(N)=O)[C@@H](C)CC)C(C)C)[C@@H](C)O [Compound 11, His¹, D-Ala², Cya³, Ala¹⁵, Leu²⁷-bGRF(1-32)NH₂] (H-H[dA][Cya]AIFTNSYRKVLAQLSARKLLQDILNRQQG-NH2)
the potency of bGRF(1-44)NH₂ [1]: 0.28 | relative growth hormone areas (meal-fed Holstein steers): 173% | remaining at 1 h [2]: 86%
